Test results: PubChem BioAssay AID1648 (Sanford-Burnham Center for Chemical Genomics, 2009)
Activity calls are given as the source filed them. The rule behind the calls is not given here.

Molecular target: Serine/threonine-protein kinase mTOR (Homo sapiens) (UniProt P42345)
Test: binders of mTOR FRB domain, biophysical, NMR (AID 1648)
Conditions: NMR binding to FRB domain, chemical shift

Serine/threonine-protein kinase mTOR (Homo sapiens), sequence (P42345 2015-2114): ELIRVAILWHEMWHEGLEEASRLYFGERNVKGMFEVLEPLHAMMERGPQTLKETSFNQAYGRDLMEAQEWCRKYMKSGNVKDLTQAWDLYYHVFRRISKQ

Compound	Kd
Cc1cccc(C(C)C)c1NC(=O)c1cccnc1	> 4 mM (inactive)
COc1ccc2nc(N)sc2c1	> 4 mM (inactive)
NC(=O)Cc1nc(-c2ccccc2)cs1	> 4 mM (inactive)
CN1CCN(CC(=O)N2CCc3ccccc32)CC1	> 4 mM (inactive)
Cc1cc(C(=O)Nc2ccon2)cs1	> 4 mM (inactive)
COc1cc2c(cc1OC)-c1cc3ccc(OC)c(OC)c3c[n+]1CC2	> 4 mM (inactive)
O=C(Nc1cnc2ccccn2c1=O)c1ccc(F)cc1	> 4 mM (inactive)
CC(=O)c1c(C)nc(-c2ccc(Cl)cc2Cl)n1O	> 4 mM (inactive)
CC1(C)C(=O)[C@@H]2O[C@@H]2[C@@]2(C)C1C[C@@H](O)[C@]1(C)C2CC[C@@]2(C)[C@H](c3ccoc3)OC(=O)C3OC321 (some centres undefined)	> 4 mM (inactive)
NC(=O)CSc1nnc(-c2cccnc2)o1	> 4 mM (inactive)
CN(C)c1ccc2c(=O)[nH][nH]c(=O)c2c1	> 4 mM (inactive)
NCc1csc2ccccc12	> 4 mM (inactive)
COCC(=O)Nc1cccc2ccccc12	> 4 mM (inactive)
C[C@H]1O[C@@H](O[C@H]2[C@@H](O)C[C@H](O[C@H]3[C@@H](O)C[C@H](O[C@H]4CC[C@]5(C)C6CC[C@]7(C)[C@@H](C8=CC(=O)OC8)CC[C@]7(O)C6CC[C@@H]5C4)O[C@@H]3C)O[C@@H]2C)C[C@H](O)[C@@H]1O (some centres undefined)	> 4 mM (inactive)
CC(CC(=O)O)n1cccn1 (centres undefined)	> 4 mM (inactive)
Cc1nnc(NC(=O)C(C)Sc2nncn2C)s1 (centres undefined)	> 4 mM (inactive)
C/C(=N\NC(N)=S)C(=O)O	> 4 mM (inactive)
O=C(c1cc2ccccc2o1)c1nc2c(n1O)CCCCC2	> 4 mM (inactive)
COc1ccccc1-c1n[nH]c(=O)o1	> 4 mM (inactive)
COC(=O)Cc1csc(N)n1	> 4 mM (inactive)
Cc1cccc(NC(=O)CN2C(=O)CNC2=O)c1	> 4 mM (inactive)
O=C(O)C1CC(=O)N(C2Cc3ccccc3C2)C1 (centres undefined)	> 4 mM (inactive)
O=C(c1ccc(F)cc1)C1CCNCC1	> 4 mM (inactive)

Compound	Kd
O=C1CSC(=Nc2cccc(C(F)(F)F)c2)N1	> 4 mM (inactive)
O=C(O)CNc1ncnc2nc[nH]c12	> 4 mM (inactive)
Cn1c(SCC(N)=O)nc2c1c(=O)[nH]c(=O)n2C	> 4 mM (inactive)
NC1CCN(Cc2ccccc2)CC1	> 4 mM (inactive)
CC1(C)Cc2nc3[nH]c(=S)[nH]c(=O)c3cc2CO1	> 4 mM (inactive)
CN1C(CC(=O)c2ccccc2)CCCC1CC(O)c1ccccc1 (centres undefined)	> 4 mM (inactive)
CN1C(=O)c2ccc(C(=O)NC3CCCCC3)cc2C1=O	> 4 mM (inactive)
Cc1nc2sccn2c1C(=O)O	> 4 mM (inactive)
COc1cc2c(cc1O)CC1c3c(cc(O)c(OC)c3-2)CCN1C (centres undefined)	> 4 mM (inactive)
Nc1ccc(-n2cncn2)cc1	> 4 mM (inactive)
Fc1cccc(F)c1CN1CCN(c2ncccn2)CC1	> 4 mM (inactive)
OCC(O)Cc1ccc2c(c1)OCO2 (centres undefined)	> 4 mM (inactive)
Cc1nc(-c2ccccc2)sc1CN	> 4 mM (inactive)
Nc1c2c3c(sc2nc(=O)n1N)CCCC3	> 4 mM (inactive)
NC(=O)c1ccsc1NC(=O)c1ccco1	> 4 mM (inactive)
O=C1CCC(=O)N1c1nc2ccccc2s1	> 4 mM (inactive)
COc1c(-c2coc3cc4c(cc3c2=O)CC(O)C(C)(C)O4)ccc2c1C=CC(C)(C)O2 (centres undefined)	> 4 mM (inactive)
CC(=O)Oc1ccc(O)cc1	> 4 mM (inactive)
COc1ccccc1NC(=O)CCC(=O)O	> 4 mM (inactive)
Cc1c(C(=O)Nc2ccncc2)oc2c1C(=O)CC(C)(C)C2	> 4 mM (inactive)
COc1ccccc1NC(=O)/C=N/O	> 4 mM (inactive)
CC(=O)N1CCc2cc(NC(=O)c3ccc(C)cc3)ccc21	> 4 mM (inactive)
CC(C)(C)NC(=O)N1CCC(C(=O)O)CC1	> 4 mM (inactive)

Compound	Kd
Cc1cc(=O)oc2c1c(C)nn2CN1CCN(C)CC1	> 4 mM (inactive)
O=C(NCC1CCNCC1)c1ccncc1	> 4 mM (inactive)
O=C1CNCc2[nH]c3ccccc3c2N1c1ccccc1	> 4 mM (inactive)
CN(C)c1oc(-c2ccccc2Cl)nc1C#N	> 4 mM (inactive)
Cc1c(C(=O)Nn2cnnc2)oc2ccccc12	> 4 mM (inactive)
NC1Cc2ccccc2C1	> 4 mM (inactive)
O=C1C2CC=CCC2C(=O)N1c1cccc(O)c1 (centres undefined)	> 4 mM (inactive)
O=C(c1ccncc1)c1ccc(Br)cc1	> 4 mM (inactive)
O=C(Nc1nnc(-c2ccccc2Cl)o1)c1ccco1	> 4 mM (inactive)
CCOC(=O)c1c(C)nc2cc(C)ccn12	> 4 mM (inactive)
CC[C@@]1(O)C[C@H](O[C@H]2C[C@H](N(C)C)[C@H](O)[C@H](C)O2)c2c(cc3c(c2O)C(=O)c2c(O)cccc2C3=O)[C@H]1C(=O)OC	> 4 mM (inactive)
C=C[C@H]1CN2CC[C@H]1C[C@@H]2[C@@H](O)c1ccnc2ccc(OC)cc12	> 4 mM (inactive)
O=c1ccn(Cc2ccccc2)c(=O)n1Cc1ccccc1	> 4 mM (inactive)
O=C(CSc1cccc2cccnc12)N1CCCC1	> 4 mM (inactive)
COc1ccc(C)cc1S(=O)(=O)Nc1ccccc1C	> 4 mM (inactive)
O=NN1C(=O)c2ccccc2C1=O	> 4 mM (inactive)
CC(=O)Nc1ccc(S(=O)(=O)Nc2cc(C)on2)cc1	> 4 mM (inactive)
COC(=O)c1sc(N)nc1C	> 4 mM (inactive)
O=C(O)c1cc2ccccc2o1	> 4 mM (inactive)
Cc1cccc(N2CCN(C(=O)c3ccncc3)CC2)c1C	> 4 mM (inactive)
CNCc1ccccc1	> 4 mM (inactive)
O=C1c2ccccc2-c2ncnc3cccc1c23	> 4 mM (inactive)
CCOC(=O)C1CN(C)CCN1C (centres undefined)	> 4 mM (inactive)

Compound	Kd
N=C1/C(=C\c2ccccc2)C(=O)N=C2SC=NN12	> 4 mM (inactive)
O=C1CSC2=NCCCN12	> 4 mM (inactive)
O=C1NC(=Nc2ccccc2)S/C1=C/c1cccnc1	> 4 mM (inactive)
O=C(O)CS(=O)(=O)c1ccccc1[N+](=O)[O-]	> 4 mM (inactive)
Cc1cc(NC(=O)c2c(F)c(F)c(F)c(F)c2F)no1	> 4 mM (inactive)
O=C(CCc1n[nH]c(=O)[nH]c1=O)NCc1ccccc1	> 4 mM (inactive)
Cc1ccc(N2C(=O)C3C4C=CC(O4)C3C2=O)cc1 (centres undefined)	> 4 mM (inactive)
N/C(=N/O)C1COc2ccccc2O1 (centres undefined)	> 4 mM (inactive)
CC(=O)O[C@@H]1CC2C(C)(C)[C@@H](O)CC[C@]2(C)C2CC[C@@]3(C)[C@H](c4ccoc4)OC(=O)[C@H]4O[C@]43[C@@]21C (some centres undefined)	> 4 mM (inactive)
O=C(O)CS(=O)(=O)c1ccccc1	> 4 mM (inactive)
Cn1c(C(=O)O)ccc1S(N)(=O)=O	> 4 mM (inactive)
C(=C\c1ccccc1)/C=N/n1cnnc1	> 4 mM (inactive)
CN(C)C(=O)Oc1cccc(-c2nnco2)c1	> 4 mM (inactive)
CC(C)NC(=O)Cc1c(O)c2ccccc2[nH]c1=O	> 4 mM (inactive)
CCOC(=O)c1cnn2ccccc12	> 4 mM (inactive)
CCC[C@@H]1CCCCN1	> 4 mM (inactive)
CC(=O)c1ccc(-n2ccnc2)cc1	> 4 mM (inactive)
C[n+]1cccc(C(=O)[O-])c1	> 4 mM (inactive)
C=C(C)C1CC=C(CO)CC1 (centres undefined)	> 4 mM (inactive)
Cc1nc2ccccc2c(=O)n1CCCn1ccnc1	> 4 mM (inactive)
C[C@@H]1OC(O[C@H]2[C@H](OC(=O)[C@]34CCC(C)(C)CC3C3=CCC5[C@@]6(C)CC[C@H](OC7O[C@@H](C)[C@H](O[C@@H]8OC[C@@H](O)[C@H](O)[C@H]8O)[C@@H](O)[C@H]7O)C(C)(C)C6CC[C@@]5(C)[C@]3(C)CC4O)OC[C@H](O)[C@H]2O)[C@H](O)[C@H](O)[C@H]1O[C@@H]1O[C@H](CO)[C@@H](O)[C@H](O)[C@H]1O (some centres undefined)	> 4 mM (inactive)
Nc1cccc(-c2cnco2)c1	> 4 mM (inactive)
c1ccc(Cn2c(Nn3cnnc3)nc3ccccc32)cc1	> 4 mM (inactive)

Compound	Kd
CC(=O)O[C@]1(C)CC[C@@]23CC1C(C)(C)[C@@H]2CC[C@H]3C	> 4 mM (inactive)
c1ccc2c(NC3=NCCS3)cccc2c1	> 4 mM (inactive)
COc1ccc(NC(=O)/C=N/O)cc1	> 4 mM (inactive)
CC(=O)c1c(C)nc(-c2cccs2)n1O	> 4 mM (inactive)
O=c1[nH]cnc2nc[nH]c12	> 4 mM (inactive)
COc1ccc2c3c([nH]c2c1)C(C)=NCC3	> 4 mM (inactive)
O=S1(=O)CCC(NC(=S)N2CCOCC2)C1 (centres undefined)	> 4 mM (inactive)
CC(C)(C#N)O[C@@H]1O[C@H](CO)[C@@H](O)[C@H](O)[C@H]1O	> 4 mM (inactive)
C/C=C/COc1nc2c(c(=O)n(C)c(=O)n2C)n1C	> 4 mM (inactive)
COc1ccc(N=C2NC(=O)CS2)cc1	> 4 mM (inactive)
c1ccc(-c2nnc(CNCc3ccco3)o2)cc1	> 4 mM (inactive)
COc1ccc(-c2c(C)n([O-])c(C)c(C)[n+]2=O)cc1	> 4 mM (inactive)
O=c1cc(-c2ccccc2)oc2c(O)c(O)ccc12	> 4 mM (inactive)
C[C@@H]1CC[C@@]2(OC1)O[C@H]1CC3C4CC[C@H]5C[C@@H](O)CC[C@]5(C)C4CC[C@]3(C)[C@H]1[C@@H]2C (some centres undefined)	> 4 mM (inactive)
CCCC(=O)N1CCSCC1	> 4 mM (inactive)
O=C(Nc1ccc(F)cc1F)c1ccco1	> 4 mM (inactive)
Nc1nc2ncc(=O)[nH]c2c(=O)[nH]1	> 4 mM (inactive)
O=C1CN(C(=O)c2ccccc2)c2ccccc2N1	> 4 mM (inactive)
C[C@H](CCC(=O)O)[C@H]1CCC2C3C(CC[C@@]21C)[C@@]1(C)CC[C@@H](O)C[C@H]1C[C@@H]3O (some centres undefined)	> 4 mM (inactive)
Nc1cccc2c(=O)[nH][nH]c(=O)c12	> 4 mM (inactive)
C=C1CCC2[C@](C)(CO)[C@H](O)CC[C@@]2(C)[C@@H]1C/C=C1/C(=O)OC[C@H]1O (some centres undefined)	> 4 mM (inactive)
O=C1CNc2cc(C(=O)O)ccc2N1	> 4 mM (inactive)
